Results: patent publication EP0672658B1, “Antithrombotic agents” (priority 1994, dated 1995)
Counter-ions that a name gives are not always drawn.

How the values were obtained:
Human Thrombin = Human Thrombin (Homo sapiens, UniProt P00734); test: biochemical; settings: read-out: Kass Human Thrombin (converted)
Trypsin = molecular target: T1, Trypsin (Bos taurus, UniProt P00760); test: biochemical; design: species or system Bovine; settings: read-out: Kass Trypsin (converted)
T1 sequence (P00760 24-246): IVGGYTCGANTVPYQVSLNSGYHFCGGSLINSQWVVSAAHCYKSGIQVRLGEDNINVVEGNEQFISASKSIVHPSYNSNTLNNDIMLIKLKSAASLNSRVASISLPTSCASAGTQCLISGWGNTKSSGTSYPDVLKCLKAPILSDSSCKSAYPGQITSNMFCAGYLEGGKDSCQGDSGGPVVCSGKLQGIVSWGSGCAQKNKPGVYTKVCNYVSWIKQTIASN
Outline: (§1)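 Bovine trypsin and human factor Xa amidase activity measured chromogenically, following the human thrombin procedure. Substrates: N-Benzoyl-Ile-Glu-Gly-Arg-p-nitroanilide for factor Xa and N-Benzoyl-Phe-Val-Arg-p-nitroanilide for trypsin. Used for selectivity profiling.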

human or animal plasma [1] = test: Anticoagulation determination in plasma: thrombin time (TT); format: biochemical; settings: concentration doubling thrombin time
Outline: (§2)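 Compounds spiked over a concentration range into citrated human, dog or rat plasma. PT used Thromboplastin-C; APTT used Actin reagent 120 s then 0.02 M CaCl2; TT used bovine thrombin 10 NIH units/mL. Concentration doubling clotting time estimated by linear extrapolation.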

human or animal plasma [2] = test: Anticoagulation determination in plasma: activated partial thromboplastin time (APTT); format: biochemical; settings: concentration doubling activated partial thromboplastin time
Outline: as §2

human or animal plasma [3] = test: Anticoagulation determination in plasma: prothrombin time (PT); format: biochemical; settings: concentration doubling prothrombin time
Outline: as §2

in vivo = test: in vivo; design: species or system rats; settings: screening not completed, activity after p.o. dose given in the legend
Source text: Each sample population represented alternating sequential time points.

factor Xa = factor Xa (Homo sapiens, UniProt P00742); test: biochemical; settings: read-out: Kass Xa (converted)
Outline: as §1

Plasmin = molecular target: T2, Plasmin (Homo sapiens, UniProt P00747); test: biochemical; settings: read-out: Kass Plasmin (converted)
T2 construct: Human plasmin is purchased; purchased Boehringer Mannheim, Indianapolis, Indiana
Outline: (§3)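 Amidase activity of human plasmin and t-PA (nt-PA single-chain; mt-PA6) was measured by a chromogenic method adapted from a thrombin assay. Substrates were H-D-Val-Leu-Lys-p-nitroanilide for plasmin and H-D-Ile-Pro-Arg-p-nitroanilide for t-PA.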

t-PA = t-PA (Homo sapiens, UniProt P00750); test: biochemical; settings: read-out: Kass t-PA (converted)
Outline: as §3
For % oral/i.v. activity (Rat) in this document: key: NC^1 indicates screening not completed; low or very low activity obsrved at 20 mg/kg p.o; NC^2 indicates screening not completed; low or very low activity observed at 60 mg/kg p.o; NC^3 indicates screening not completed; low or very low activity observed at 50 mg/kg p.o.

T2 sequence (P00747 581-810 limits assumed): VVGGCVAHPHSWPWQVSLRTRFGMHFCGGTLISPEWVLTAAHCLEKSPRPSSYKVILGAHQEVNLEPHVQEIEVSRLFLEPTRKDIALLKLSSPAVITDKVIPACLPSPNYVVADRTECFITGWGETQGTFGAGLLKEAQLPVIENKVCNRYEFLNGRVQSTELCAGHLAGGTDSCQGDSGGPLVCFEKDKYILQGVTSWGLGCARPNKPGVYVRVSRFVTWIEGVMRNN
T2 sequence (P00747 97-580 partner limits assumed): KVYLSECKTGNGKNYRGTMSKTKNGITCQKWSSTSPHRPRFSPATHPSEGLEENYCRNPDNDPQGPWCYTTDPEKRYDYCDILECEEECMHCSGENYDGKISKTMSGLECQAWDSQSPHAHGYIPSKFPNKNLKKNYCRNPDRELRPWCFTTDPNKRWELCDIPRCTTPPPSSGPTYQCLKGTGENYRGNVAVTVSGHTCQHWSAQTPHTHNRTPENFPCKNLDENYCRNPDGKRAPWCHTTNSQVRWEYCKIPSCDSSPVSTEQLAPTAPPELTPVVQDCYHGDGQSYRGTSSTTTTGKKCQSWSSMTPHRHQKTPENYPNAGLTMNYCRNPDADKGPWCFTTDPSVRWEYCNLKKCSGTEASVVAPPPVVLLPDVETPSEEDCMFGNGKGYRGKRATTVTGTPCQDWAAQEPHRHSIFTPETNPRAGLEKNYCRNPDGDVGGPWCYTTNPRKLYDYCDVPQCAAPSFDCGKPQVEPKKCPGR
Sequence of factor Xa (P00742 235-488 limits assumed): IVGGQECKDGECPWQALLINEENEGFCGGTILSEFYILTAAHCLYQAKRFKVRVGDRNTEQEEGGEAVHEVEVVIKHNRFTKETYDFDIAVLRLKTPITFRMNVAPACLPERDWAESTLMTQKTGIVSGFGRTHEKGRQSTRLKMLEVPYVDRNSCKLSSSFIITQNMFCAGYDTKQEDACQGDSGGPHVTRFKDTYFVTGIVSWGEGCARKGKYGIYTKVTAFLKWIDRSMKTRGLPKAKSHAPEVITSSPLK
Sequence of factor Xa (P00742 41-179 partner limits assumed): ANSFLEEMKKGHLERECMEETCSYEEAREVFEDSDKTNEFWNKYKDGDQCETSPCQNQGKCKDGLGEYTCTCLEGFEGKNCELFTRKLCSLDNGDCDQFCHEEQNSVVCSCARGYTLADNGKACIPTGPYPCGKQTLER
Sequence of t-PA (P00750 36-562): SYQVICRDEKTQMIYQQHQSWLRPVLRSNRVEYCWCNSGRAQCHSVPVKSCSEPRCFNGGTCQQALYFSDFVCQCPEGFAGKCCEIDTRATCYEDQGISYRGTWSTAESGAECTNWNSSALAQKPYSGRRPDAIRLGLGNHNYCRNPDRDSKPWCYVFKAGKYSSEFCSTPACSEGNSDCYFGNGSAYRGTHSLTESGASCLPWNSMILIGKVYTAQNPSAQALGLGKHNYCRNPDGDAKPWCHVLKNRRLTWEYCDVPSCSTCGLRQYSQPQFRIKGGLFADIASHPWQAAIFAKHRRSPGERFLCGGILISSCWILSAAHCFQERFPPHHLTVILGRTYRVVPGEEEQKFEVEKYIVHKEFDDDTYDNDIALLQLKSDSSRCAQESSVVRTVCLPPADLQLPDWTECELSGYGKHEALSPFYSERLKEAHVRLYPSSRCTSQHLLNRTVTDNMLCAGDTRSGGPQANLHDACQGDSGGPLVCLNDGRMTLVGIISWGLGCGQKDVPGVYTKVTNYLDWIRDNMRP

| SMILES | Kd (Human Thrombin) [µM] | Kd (Trypsin) [µM] | % oral/i.v. activity (Rat) (in vivo) | Kd (factor Xa) [µM] | Kd (Plasmin) [µM] | Kd (t-PA) [µM] | Human Plasma Anticoagulation 2x Clotting time (ng/mL) TT (human or animal plasma [1]) | Human Plasma Anticoagulation 2x Clotting time (ng/mL) APTT (human or animal plasma [2]) | Human Plasma Anticoagulation 2x Clotting time (ng/mL) PT (human or animal plasma [3]) |
| --- | --- | --- | --- | --- | --- | --- | --- | --- | --- |
| N=C(N)c1ccc(CNC(=O)[C@@H]2CCCN2C(=O)[C@@H](CC2CCCCC2)NCCC(=O)O)cc1 [Example 52, HOOCCH2CH2-D-Cha-Pro-p-NHCH2C6H4C(NH)NH2·HCl] | 0.00143 | 0.0213 |  | 2.17 | 9.09 | 100 | 6 ng/mL | 80 ng/mL | 170 ng/mL |
| CCS(=O)(=O)N[C@H](Cc1ccccc1)C(=O)N1CCC[C@H]1C(=O)NCCc1ccc(NC(=N)N)cc1 [Example 35, EtSO2-D-Phe-Pro-p-NHCH2CH2C6H4CNH(NH)NH2·HCl] | 11.1 | 25 |  | > 1000 | > 1000 | > 1000 | 4,500 ng/mL | 50,400 ng/mL | 78,400 ng/mL |
| CCS(=O)(=O)N[C@H](Cc1ccccc1)C(=O)N1CCC[C@H]1C(=O)NCc1cccc(C(=N)N)c1 [Example 24, EtSO2-D-Phe-Pro-m-NHCH2-C6H4C(=NH)NH2·HCl] | 1.28 | 33.3 |  | > 1000 | > 1000 | > 1000 | 1,000 ng/mL | 25,900 ng/mL | 25,000 ng/mL |
| N=C(N)c1cccc(CCCNC(=O)[C@@H]2CCCN2C(=O)[C@@H]2NCC[C@@H]3CCCC[C@@H]32)c1 [Example 33, 1-Piq-Pro-m-NHCH2CH2CH2-C6H4C(=NH)NH2·HCl] | 25 | 50 |  | 25 | > 1000 | > 1000 | 18,900 ng/mL | 59,300 ng/mL | 70,900 ng/mL |
| N=C(N)c1ccc(CNC(=O)[C@@H]2CCCN2C(=O)[C@H]2CCCCN2)cc1 [Example 17, D-hPro-Pro-p-NHCH2C6H4C(NH)NH2·HCl] | 0.0303 | 0.263 |  | 20.4 | 41.7 | 294 | 26 ng/mL | 370 ng/mL | 400 ng/mL |
| CCS(=O)(=O)N[C@H](Cc1ccccc1)C(=O)N1CCC[C@H]1C(=O)NCCc1cccc(C(=N)N)c1 [Example 27, EtSO2-D-Phe-Pro-m-NHCH2CH2-C6H4C(=NH)NH2·HCl] | 3.45 | 50 |  | 50 | > 1000 | 50 | 1,940 ng/mL | 27,800 ng/mL | 27,000 ng/mL |
| CCS(=O)(=O)N[C@@H](C(=O)N1[C@H](C(=O)NCc2ccc(C(=N)N)cc2)C[C@@H]2CCCC[C@@H]21)c1ccccc1 (relative stereo) [Example 44, EtSO2-Phg-cis-Ohi-p-NHCH2C6H4C(NH)NH2. HCl] | 0.00159 | 0.000385 |  | 1.52 | 0.556 | 25 | 4. ng/mL | 100 ng/mL | 170 ng/mL |
| N=C(N)c1ccc(CCNC(=O)[C@@H]2CCCN2C(=O)[C@@H]2NCC[C@@H]3CCCC[C@@H]32)cc1 [Example 28, 1-Piq-Pro-p-NHCH2CH2-C6H4C(=NH)NH2·2HCl] | 1.05 | 9.09 |  | 100 | > 1000 | > 1000 | 520 ng/mL | 8,100 ng/mL | 8,300 ng/mL |
| N=C(N)c1ccc(CNC(=O)[C@@H]2CCCN2C(=O)[C@H]2C[C@H]3CCCC[C@H]3CN2)cc1 [Example 19, D-3-Piq-Pro-p-NHCH2C6H4C(NH)NH2·3HCl] | 0.0909 | 0.0244 |  | 7.14 | 6.25 | 179 | 58 ng/mL | 300 ng/mL | 540 ng/mL |
| O=C(O)CN[C@H](CC1CCCCC1)C(=O)N1CCC[C@H]1C(=O)NCCCC1CCNCC1 [Example 55, HO2CCH2-D-Cha-Pro-4-NHCH2CH2CH2-piperidine·HCl] | 100 | 100 |  | > 1000 | > 1000 | > 1000 | 55,800 ng/mL | >91,000 ng/mL | >91,000 ng/mL |
| N=C(N)c1ccc(CNC(=O)[C@@H]2CCCN2C(=O)[C@@H]2NCC[C@@H]3CCCC[C@@H]32)cc1 [Example 18, 1-Piq-Pro-p-NHCH2C6H4C(NH)NH2·2HCl] | 0.00556 | 0.0714 |  | 4.76 | 11.8 | 106 | 7 ng/mL | 79 ng/mL | 170 ng/mL |
| CCS(=O)(=O)N[C@H](Cc1ccccc1)C(=O)N1CCC[C@H]1C(=O)NCCCc1ccc(C(=N)N)cc1 [Example 30, EtSO2-D-Phe-Pro-p-NHCH2CH2CH2-C6H4C(=NH)NH2·HCl] | 1.82 | 33.3 |  | 50 | > 1000 | > 1000 | 1,000 ng/mL | 14,000 ng/mL | 14,400 ng/mL |

The next lines start with results.

| Kd (Human Thrombin) [µM] | Kd (Trypsin) [µM] | % oral/i.v. activity (Rat) (in vivo) | Kd (factor Xa) [µM] | Kd (Plasmin) [µM] | Kd (t-PA) [µM] | SMILES | Human Plasma Anticoagulation 2x Clotting time (ng/mL) TT (human or animal plasma [1]) | Human Plasma Anticoagulation 2x Clotting time (ng/mL) APTT (human or animal plasma [2]) | Human Plasma Anticoagulation 2x Clotting time (ng/mL) PT (human or animal plasma [3]) |
| --- | --- | --- | --- | --- | --- | --- | --- | --- | --- |
| 0.000714 | 0.00417 | NC^1 |  |  |  | N=C(N)c1ccc(CNC(=O)[C@@H]2CCCN2C(=O)[C@@H](CC2CCCCC2)NCC(=O)O)c(F)c1 [Example 71, HO2CCH2-D-Cha-Pro-4-NHCH2-3-F-benzamidine·HCl] | 1 ng/mL | 89 ng/mL | 150 ng/mL |
| 0.0159 | 1 |  | 33.3 | 250 | 125 | N=C(N)NCCCCNC(=O)[C@@H]1CCCN1C(=O)[C@@H]1NCC[C@H]2CCCC[C@H]21 [Example 61, N-[4-[(aminoiminomethyl)amino]butyl]-1-[[(4aR,8aR)-decahydro-1(R)-isoquinolinyl]carbonyl]-1-prolinamide trihydrochloride] | 45 ng/mL | 679 ng/mL | 756 ng/mL |
| 0.00204 | 0.278 |  | 5 | 100 | > 1000 | N=C(N)N1CCC(CNC(=O)[C@@H]2CCCN2C(=O)[C@@H](CC2CCCCC2)NCC(=O)O)CC1 [Example 56, HO2CCH2-D-Cha-Pro-4-NHCH2-1-amidinopiperidine·HCl] | 5 ng/mL | 160 ng/mL | 200 ng/mL |
| 0.000435 | 0.00357 | NC^1 |  |  |  | N=C(N)c1cc(F)c(CNC(=O)[C@@H]2CCCN2C(=O)[C@@H](CC2CCCCC2)NCC(=O)O)c(F)c1 [Example 72, HO2CCH2-D-Cha-Pro-4-NHCH2-3,5-F2-benzamidine·HCl] | 1 ng/mL | 160 ng/mL | 160 ng/mL |
| 0.0667 |  | NC^3 | 100 |  |  | Nc1ccc(CNC(=O)[C@@H]2CCCN2C(=O)[C@@H](CC2CCCCC2)NCC(=O)O)c(F)c1 [Example 64, HO2CCH2-D-Cha-Pro-4-NHCH2-3-F-C6H3NH2·HCl] | 23 ng/mL | 900 ng/mL | 650 ng/mL |
| 4.17 | 33.3 |  | > 1000 | > 1000 | > 1000 | O=C(O)CN[C@H](CC1CCCCC1)C(=O)N1CCC[C@H]1C(=O)NCCCC1=CCNCC1 [Example 60, HO2CCH2-D-Cha-Pro-4-NHCH2CH2CH2-3,4-dehydro-piperidine·HCl] | 3,200 ng/mL | 22,200 ng/mL | 77,700 ng/mL |
